Earlier results as cited in patent US8986418B1, “Method and system for agricultural fertigation” (priority 2008, dated 2015).
Like-named read-outs stand apart in the source and are kept apart here.

| SMILES | Solubility with anion CO3^−2 | Solubility with anion Cl | Solubility with anion HCO3^− | Solubility with anion NO3^− | Solubility with anion OH^− | Solubility with anion PO4^−3 | Solubility with anion SO4^−2 | Solubility with anion S^−2 | Solubility with anion CO3^−2 (listed as Fe^+3) | Solubility with anion HCO3^− (listed as Fe^+3) | Solubility with anion OH^− (listed as Fe^+3) |
| --- | --- | --- | --- | --- | --- | --- | --- | --- | --- | --- | --- |
| [Mg+2] [Mg^+2] | VSS (VSS means very slightly soluble (20-2,000 ppm)) | S (S means soluble (over 5,000 ppm)) | S (S means soluble (over 5,000 ppm)) | S (S means soluble (over 5,000 ppm)) | I (I means insoluble (<20 ppm)) | I (I means insoluble (<20 ppm)) | S (S means soluble (over 5,000 ppm)) | – | – | – | – |
| [H+] [H^+] | CO2 | S (S means soluble (over 5,000 ppm)) | S (S means soluble (over 5,000 ppm)) | S (S means soluble (over 5,000 ppm)) | – | S (S means soluble (over 5,000 ppm)) | S (S means soluble (over 5,000 ppm)) | – | – | – | – |
| [K+] [K^+] | S (S means soluble (over 5,000 ppm)) | S (S means soluble (over 5,000 ppm)) | S (S means soluble (over 5,000 ppm)) | S (S means soluble (over 5,000 ppm)) | S (S means soluble (over 5,000 ppm)) | S (S means soluble (over 5,000 ppm)) | S (S means soluble (over 5,000 ppm)) | S (S means soluble (over 5,000 ppm)) | – | – | – |
| [Mn+2] [Mn^+2] | I (I means insoluble (<20 ppm)) | S (S means soluble (over 5,000 ppm)) | – | S (S means soluble (over 5,000 ppm)) | I (I means insoluble (<20 ppm)) | I (I means insoluble (<20 ppm)) | S (S means soluble (over 5,000 ppm)) | I (I means insoluble (<20 ppm)) | – | – | – |
| [Fe+2] [Fe^+2] | VSS (VSS means very slightly soluble (20-2,000 ppm)) | S (S means soluble (over 5,000 ppm)) | SS (SS means slightly soluble (2,000 to 5,000 ppm)) | S (S means soluble (over 5,000 ppm)) | VSS (VSS means very slightly soluble (20-2,000 ppm)) | I (I means insoluble (<20 ppm)) | S (S means soluble (over 5,000 ppm)) | I (I means insoluble (<20 ppm)) | I (I means insoluble (<20 ppm)) | I (I means insoluble (<20 ppm)) | I (I means insoluble (<20 ppm)) |
